In ChEMBL document CHEMBL6121052, “Design of ROS-Triggered Sesquiterpene Lactone SC Prodrugs as TrxR1 Covalent Inhibitors for the Treatment of Non-Small Cell Lung Cancer” (J Med Chem, 2025):

Tests used:
NCI-H460 = experiment: Cytotoxicity against human NCI-H460 cells assessed as cell viability incubated for 48 hrs by MTT assay; assay type: functional, cell-based; settings: NCI-H460, 48 h
A549 = experiment: Cytotoxicity against human A549 cells assessed as cell viability incubated for 48 hrs by MTT assay; assay type: functional, cell-based; settings: A549, 48 h

Row | SMILES | IC50 (NCI-H460) [µM] | IC50 (A549) [µM]
1 | C/C1=C\[C@@H](OC(=O)C2CC2)[C@H]2[C@H](CC3=C[C@H](C1)OC3=O)OC(=O)[C@@H]2CSCCCCCCCCCCSC[C@H]1C(=O)O[C@H]2CC3=C[C@H](C/C(C)=C/[C@@H](OC(=O)C4CC4)[C@@H]21)OC3=O | > 25 | > 25
2 | CCCCCSC[C@H]1C(=O)O[C@H]2CC3=C[C@H](C/C(C)=C/[C@@H](OC(=O)C4CC4)[C@@H]21)OC3=O | > 25 | > 25
3 | C/C1=C\[C@@H](O)[C@H]2[C@H](CC3=C[C@H](C1)OC3=O)OC(=O)[C@@H]2CSc1nc2ccccc2s1 | > 25 | > 25
4 | C/C1=C\[C@@H](O)[C@H]2[C@H](CC3=C[C@H](C1)OC3=O)OC(=O)[C@@H]2CSc1ccc(Cl)cc1 | > 25 | > 25
5 | C/C1=C\[C@@H](O)[C@H]2[C@H](CC3=C[C@H](C1)OC3=O)OC(=O)[C@@H]2CSCCCCCCCCSC[C@H]1C(=O)O[C@H]2CC3=C[C@H](C/C(C)=C/[C@@H](O)[C@@H]21)OC3=O | > 25 | > 25
6 | C/C1=C\[C@@H](O)[C@H]2[C@H](CC3=C[C@H](C1)OC3=O)OC(=O)[C@@H]2CSCCCCCCSC[C@H]1C(=O)O[C@H]2CC3=C[C@H](C/C(C)=C/[C@@H](O)[C@@H]21)OC3=O | > 25 | 21.9
7 | C/C1=C\[C@@H](OC(=O)/C=C/c2ccccc2)[C@H]2[C@H](CC3=C[C@H](C1)OC3=O)OC(=O)[C@@H]2CSc1nc2ccccc2s1 | > 25 | > 25
8 | CCCCCSC[C@H]1C(=O)O[C@H]2CC3=C[C@H](C/C(C)=C/[C@@H](O)[C@@H]21)OC3=O | > 25 | > 25
9 | C/C1=C\[C@@H](OC(=O)C2CC2)[C@H]2[C@H](CC3=C[C@H](C1)OC3=O)OC(=O)[C@@H]2CSC(=S)NCc1cccnc1 | 15.3 | 1.41
10 | C/C1=C\[C@@H](OC(=O)C2CC2)[C@H]2[C@H](CC3=C[C@H](C1)OC3=O)OC(=O)[C@@H]2CSC(=S)NC(C)C | > 25 | 1.94
11 | C/C1=C\[C@@H](OC(=O)c2ccccc2)[C@H]2[C@H](CC3=C[C@H](C1)OC3=O)OC(=O)[C@@H]2CSc1ccc(SC[C@H]2C(=O)O[C@H]3CC4=C[C@H](C/C(C)=C/[C@@H](OC(=O)c5ccccc5)[C@@H]32)OC4=O)cc1 | > 25 | > 25
12 | C/C1=C\[C@@H](OC(=O)/C=C/c2ccccc2)[C@H]2[C@H](CC3=C[C@H](C1)OC3=O)OC(=O)[C@@H]2CSc1ccc(F)cc1 | > 25 | 11.3
13 | C/C1=C\[C@@H](OC(=O)C2CC2)[C@H]2[C@H](CC3=C[C@H](C1)OC3=O)OC(=O)[C@@H]2CSC(=S)NCc1ccc(F)cc1 | 15.2 | 1.79
14 | C/C1=C\[C@@H](OC(=O)c2ccccc2)[C@H]2[C@H](CC3=C[C@H](C1)OC3=O)OC(=O)[C@@H]2CSCCCCCCCCCCSC[C@H]1C(=O)O[C@H]2CC3=C[C@H](C/C(C)=C/[C@@H](OC(=O)c4ccccc4)[C@@H]21)OC3=O | > 25 | > 25
15 | C/C1=C\[C@@H](O)[C@H]2[C@H](CC3=C[C@H](C1)OC3=O)OC(=O)[C@@H]2CSCCCCCSC[C@H]1C(=O)O[C@H]2CC3=C[C@H](C/C(C)=C/[C@@H](O)[C@@H]21)OC3=O | > 25 | > 25
16 | C/C1=C\[C@@H](OC(=O)C2CC2)[C@H]2[C@H](CC3=C[C@H](C1)OC3=O)OC(=O)[C@@H]2CSC(=S)N1CCOCC1 | > 25 | 0.83
17 | C/C1=C\[C@@H](O)[C@H]2[C@H](CC3=C[C@H](C1)OC3=O)OC(=O)[C@@H]2CSc1cccc(Br)c1 | > 25 | > 25
18 | C/C1=C\[C@@H](OC(=O)c2ccccc2)[C@H]2[C@H](CC3=C[C@H](C1)OC3=O)OC(=O)[C@@H]2CSc1ccc(C(F)(F)F)cc1 | 24.4 | 3.74
19 | COc1ccc(SC[C@H]2C(=O)O[C@H]3CC4=C[C@H](C/C(C)=C/[C@@H](OC(=O)c5ccccc5)[C@@H]32)OC4=O)cc1 | > 25 | 9.67
20 | C/C1=C\[C@@H](OC(=O)c2ccccc2)[C@H]2[C@H](CC3=C[C@H](C1)OC3=O)OC(=O)[C@@H]2CSC1CCCCC1 | > 25 | > 25
21 | C/C1=C\[C@@H](OC(=O)/C=C/c2ccccc2)[C@H]2[C@H](CC3=C[C@H](C1)OC3=O)OC(=O)[C@@H]2CSc1ccc(SC[C@H]2C(=O)O[C@H]3CC4=C[C@H](C/C(C)=C/[C@@H](OC(=O)/C=C/c5ccccc5)[C@@H]32)OC4=O)cc1 | > 25 | > 25
22 | C/C1=C\[C@@H](O)[C@H]2[C@H](CC3=C[C@H](C1)OC3=O)OC(=O)[C@@H]2CSCc1ccc(Cl)cc1 | > 25 | > 25

Row | SMILES | IC50 (NCI-H460) [µM] | IC50 (A549) [µM]
23 | C/C1=C\[C@@H](OC(=O)c2ccccc2)[C@H]2[C@H](CC3=C[C@H](C1)OC3=O)OC(=O)[C@@H]2CSCC(C)C | > 25 | > 25
24 | C/C1=C\[C@@H](OC(=O)C2CC2)[C@H]2[C@H](CC3=C[C@H](C1)OC3=O)OC(=O)[C@@H]2CSC1CCCCC1 | > 25 | > 25
25 | CCCCCSC[C@H]1C(=O)O[C@H]2CC3=C[C@H](C/C(C)=C/[C@@H](OC(=O)/C=C/c4ccccc4)[C@@H]21)OC3=O | > 25 | > 25
26 | C/C1=C\[C@@H](OC(=O)C2CC2)[C@H]2[C@H](CC3=C[C@H](C1)OC3=O)OC(=O)[C@@H]2CSc1cccc(F)c1 | 13.2 | 5.4
27 | CCCNC(=S)SC[C@H]1C(=O)O[C@H]2CC3=C[C@H](C/C(C)=C/[C@@H](OC(=O)C4CC4)[C@@H]21)OC3=O | 24.9 | 2.85
28 | C/C1=C\[C@@H](OC(=O)/C=C/c2ccccc2)[C@H]2[C@H](CC3=C[C@H](C1)OC3=O)OC(=O)[C@@H]2CSc1ccc(Br)cc1 | > 25 | 11.8
29 | C/C1=C\[C@@H](OC(=O)c2ccccc2)[C@H]2[C@H](CC3=C[C@H](C1)OC3=O)OC(=O)[C@@H]2CSCCOCCOCCSC[C@H]1C(=O)O[C@H]2CC3=C[C@H](C/C(C)=C/[C@@H](OC(=O)c4ccccc4)[C@@H]21)OC3=O | > 25 | > 25
30 | C/C1=C\[C@@H](OC(=O)C2CC2)[C@H]2[C@H](CC3=C[C@H](C1)OC3=O)OC(=O)[C@@H]2CSc1ccc([N+](=O)[O-])cc1 | > 25 | 5.12
31 | C/C1=C\[C@@H](OC(=O)C2CC2)[C@H]2[C@H](CC3=C[C@H](C1)OC3=O)OC(=O)[C@@H]2CSc1ccc(SC[C@H]2C(=O)O[C@H]3CC4=C[C@H](C/C(C)=C/[C@@H](OC(=O)C5CC5)[C@@H]32)OC4=O)cc1 | > 25 | 1.15
32 | C/C1=C\[C@@H](OC(=O)C2CC2)[C@H]2[C@H](CC3=C[C@H](C1)OC3=O)OC(=O)[C@@H]2CSc1ccc(Cl)cc1 | > 25 | 6.03
33 | C/C1=C\[C@@H](OC(=O)/C=C/c2ccccc2)[C@H]2[C@H](CC3=C[C@H](C1)OC3=O)OC(=O)[C@@H]2CSCCOCCOCCSC[C@H]1C(=O)O[C@H]2CC3=C[C@H](C/C(C)=C/[C@@H](OC(=O)/C=C/c4ccccc4)[C@@H]21)OC3=O | > 25 | > 25
34 | C/C1=C\[C@@H](OC(=O)c2ccccc2)[C@H]2[C@H](CC3=C[C@H](C1)OC3=O)OC(=O)[C@@H]2CSc1ccc(Br)cc1 | > 25 | 8.85
35 | C/C1=C\[C@@H](OC(=O)C2CC2)[C@H]2[C@H](CC3=C[C@H](C1)OC3=O)OC(=O)[C@@H]2CSC(=S)NC1CCCC1 | > 25 | 2.63
36 | C/C1=C\[C@@H](OC(=O)c2ccccc2)[C@H]2[C@H](CC3=C[C@H](C1)OC3=O)OC(=O)[C@@H]2CSc1ccc(F)cc1 | > 25 | 7.18
37 | C/C1=C\[C@@H](O)[C@H]2[C@H](CC3=C[C@H](C1)OC3=O)OC(=O)[C@@H]2CSc1ccc(F)cc1 | > 25 | > 25
38 | C/C1=C\[C@@H](OC(=O)c2ccccc2)[C@H]2[C@H](CC3=C[C@H](C1)OC3=O)OC(=O)[C@@H]2CSCCCCCSC[C@H]1C(=O)O[C@H]2CC3=C[C@H](C/C(C)=C/[C@@H](OC(=O)c4ccccc4)[C@@H]21)OC3=O | > 25 | > 25
39 | C/C1=C\[C@@H](O)[C@H]2[C@H](CC3=C[C@H](C1)OC3=O)OC(=O)[C@@H]2CSC1CCCCC1 | > 25 | > 25
40 | C/C1=C\[C@@H](OC(=O)C2CC2)[C@H]2[C@H](CC3=C[C@H](C1)OC3=O)OC(=O)[C@@H]2CSCCCCCCSC[C@H]1C(=O)O[C@H]2CC3=C[C@H](C/C(C)=C/[C@@H](OC(=O)C4CC4)[C@@H]21)OC3=O | > 25 | > 25
41 | C/C1=C\[C@@H](OC(=O)C2CC2)[C@H]2[C@H](CC3=C[C@H](C1)OC3=O)OC(=O)[C@@H]2CSc1cccc(Br)c1 | > 25 | 5.77
42 | C/C1=C\[C@@H](OC(=O)c2ccccc2)[C@H]2[C@H](CC3=C[C@H](C1)OC3=O)OC(=O)[C@@H]2CSc1ccc(Cl)cc1 | 20.6 | 4.14
43 | C/C1=C\[C@@H](OC(=O)C2CC2)[C@H]2[C@H](CC3=C[C@H](C1)OC3=O)OC(=O)[C@@H]2CSCCCCCSC[C@H]1C(=O)O[C@H]2CC3=C[C@H](C/C(C)=C/[C@@H](OC(=O)C4CC4)[C@@H]21)OC3=O | > 25 | > 25
44 | C/C1=C\[C@@H](OC(=O)c2ccccc2)[C@H]2[C@H](CC3=C[C@H](C1)OC3=O)OC(=O)[C@@H]2CSc1cccc(Br)c1 | > 25 | 3.66
